Here are results for 1 compound from article PMC10174618, “Monoterpenoid aryl hydrocarbon receptor allosteric antagonists protect against ultraviolet skin damage in female mice” (Nature Communications, 2023).

What all share (assay): biochemical
Holding throughout (set-up): KINOMEscan scanMAX active site-directed competition binding assay, percent of control, 468 kinases
Details in all cases: competition binding, percent of control

One test concerns the target PAK1 (Homo sapiens, UniProt Q13153). A digest of the protocol: (§1)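 Single-concentration screen (100 μM S-carvone) in a competition binding panel of 468 human kinases (KINOMEscan scanMAX); results given as percent of control, hit cutoff 35%.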
Another test addresses CAMK2B (Homo sapiens, UniProt Q13554). In outline:
as §1

The target in a further test is MAP4K3 (Homo sapiens, UniProt Q8IVH8). In outline: as §1
The target in a further test is CDK4 (Homo sapiens, UniProt P11802). In outline: as §1
Sequence of CDK4 (P11802 whole entry): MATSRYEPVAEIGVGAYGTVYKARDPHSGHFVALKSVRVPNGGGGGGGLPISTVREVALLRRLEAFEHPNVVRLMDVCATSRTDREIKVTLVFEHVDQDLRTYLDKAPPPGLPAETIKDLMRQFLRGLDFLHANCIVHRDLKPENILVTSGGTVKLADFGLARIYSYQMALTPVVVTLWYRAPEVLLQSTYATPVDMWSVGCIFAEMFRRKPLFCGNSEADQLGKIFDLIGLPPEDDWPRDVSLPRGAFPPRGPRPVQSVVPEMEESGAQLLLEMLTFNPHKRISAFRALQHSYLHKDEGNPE
In another test the target is GRK2 (Homo sapiens, UniProt P25098). A digest of the protocol:
as §1

The target of the next test is HIPK4 (Homo sapiens, UniProt Q8NE63). A digest of the protocol:
as §1

The target of a further test is SIK2 (Homo sapiens, UniProt Q9H0K1). A digest of the protocol:
as §1

Another test has as its target DYRK1A (Homo sapiens, UniProt Q13627). In outline: as §1
The target of another test is T1, ASK2 (Homo sapiens, UniProt O95382).
T1 construct: gene MAP3K6
A digest of the protocol:
as §1

The next test concerns the target T2, p38-alpha (Homo sapiens, UniProt Q16539).
T2 construct: gene MAPK14
In outline: as §1

For test [1], the target named is T3, RPS6KA5(Kin.Dom.2-C-terminal) (Homo sapiens, UniProt O75582).
T3 construct: Kin.Dom.2-C-terminal
T3 sequence (O75582 whole entry): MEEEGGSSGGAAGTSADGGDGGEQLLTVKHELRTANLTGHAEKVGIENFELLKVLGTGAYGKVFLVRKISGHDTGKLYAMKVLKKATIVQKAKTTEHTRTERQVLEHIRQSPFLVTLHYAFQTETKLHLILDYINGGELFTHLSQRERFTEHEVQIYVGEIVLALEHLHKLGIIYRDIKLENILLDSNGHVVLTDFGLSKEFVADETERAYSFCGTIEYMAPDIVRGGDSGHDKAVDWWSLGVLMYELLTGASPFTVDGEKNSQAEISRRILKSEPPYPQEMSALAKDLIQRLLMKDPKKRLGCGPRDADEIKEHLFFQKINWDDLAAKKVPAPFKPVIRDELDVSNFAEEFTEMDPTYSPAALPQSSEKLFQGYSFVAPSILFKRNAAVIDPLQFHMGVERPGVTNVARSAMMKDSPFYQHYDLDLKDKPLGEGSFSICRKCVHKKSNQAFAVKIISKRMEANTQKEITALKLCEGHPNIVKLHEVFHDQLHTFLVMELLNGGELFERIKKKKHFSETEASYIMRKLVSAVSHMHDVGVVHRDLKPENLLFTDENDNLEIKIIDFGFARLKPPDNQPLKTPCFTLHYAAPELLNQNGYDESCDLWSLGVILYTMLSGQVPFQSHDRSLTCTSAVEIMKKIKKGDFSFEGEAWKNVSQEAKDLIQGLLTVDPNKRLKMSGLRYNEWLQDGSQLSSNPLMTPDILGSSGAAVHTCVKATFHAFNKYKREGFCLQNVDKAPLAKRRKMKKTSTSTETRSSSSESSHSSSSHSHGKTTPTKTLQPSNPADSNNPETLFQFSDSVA
A digest of the protocol: as §1

Another test addresses PIK3CA(C420R) (Homo sapiens, UniProt P42336, C420R). A digest of the protocol: as §1
Another test concerns the target T4, YSK1 (Homo sapiens, UniProt O00506).
T4 construct: gene STK25
In outline: as §1

The target in the next test is T5, CDK4-cyclinD1 (Homo sapiens, UniProt P11802).
T5 construct: cyclinD1
T5 sequence (P11802 whole entry): as the sequence (P11802 whole entry) above
T5 sequence (P24385 whole entry partner): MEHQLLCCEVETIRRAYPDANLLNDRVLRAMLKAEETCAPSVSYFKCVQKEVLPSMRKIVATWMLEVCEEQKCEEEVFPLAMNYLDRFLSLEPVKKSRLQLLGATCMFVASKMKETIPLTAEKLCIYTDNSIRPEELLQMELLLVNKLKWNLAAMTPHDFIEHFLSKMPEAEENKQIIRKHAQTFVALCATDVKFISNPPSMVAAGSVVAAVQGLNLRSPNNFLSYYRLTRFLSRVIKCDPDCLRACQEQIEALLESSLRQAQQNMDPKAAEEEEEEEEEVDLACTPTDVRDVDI
In outline:
as §1

In another test the target is NEK10 (Homo sapiens, UniProt Q6ZWH5). A digest of the protocol:
as §1

Another test deals with CAMK2D (Homo sapiens, UniProt Q13557). A digest of the protocol:
as §1

In a further test the target is MARK1 (Homo sapiens, UniProt Q9P0L2). A digest of the protocol: as §1
A further test concerns the target PDGFRB (Homo sapiens, UniProt P09619). A digest of the protocol: as §1
The next test deals with T6, DRAK1 (Homo sapiens, UniProt Q9UEE5).
T6 construct: gene STK17A
T6 sequence (Q9UEE5 whole entry): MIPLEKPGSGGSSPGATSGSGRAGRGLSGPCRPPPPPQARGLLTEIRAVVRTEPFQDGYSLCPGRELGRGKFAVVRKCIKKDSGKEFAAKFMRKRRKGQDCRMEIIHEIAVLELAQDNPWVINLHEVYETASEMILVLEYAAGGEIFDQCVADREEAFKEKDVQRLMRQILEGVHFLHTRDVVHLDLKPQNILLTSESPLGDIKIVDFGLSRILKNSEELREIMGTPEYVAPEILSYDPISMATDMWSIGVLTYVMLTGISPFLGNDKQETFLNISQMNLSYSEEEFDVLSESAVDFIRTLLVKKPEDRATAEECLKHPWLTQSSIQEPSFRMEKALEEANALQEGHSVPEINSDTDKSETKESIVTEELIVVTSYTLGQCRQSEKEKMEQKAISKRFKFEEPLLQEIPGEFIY
A digest of the protocol:
as §1

The target in the next test is HIPK1 (Homo sapiens, UniProt Q86Z02). A digest of the protocol: as §1
For another test, the target named is T7, JNK1 (Homo sapiens, UniProt P45983).
T7 construct: gene MAPK8
T7 sequence (P45983 whole entry): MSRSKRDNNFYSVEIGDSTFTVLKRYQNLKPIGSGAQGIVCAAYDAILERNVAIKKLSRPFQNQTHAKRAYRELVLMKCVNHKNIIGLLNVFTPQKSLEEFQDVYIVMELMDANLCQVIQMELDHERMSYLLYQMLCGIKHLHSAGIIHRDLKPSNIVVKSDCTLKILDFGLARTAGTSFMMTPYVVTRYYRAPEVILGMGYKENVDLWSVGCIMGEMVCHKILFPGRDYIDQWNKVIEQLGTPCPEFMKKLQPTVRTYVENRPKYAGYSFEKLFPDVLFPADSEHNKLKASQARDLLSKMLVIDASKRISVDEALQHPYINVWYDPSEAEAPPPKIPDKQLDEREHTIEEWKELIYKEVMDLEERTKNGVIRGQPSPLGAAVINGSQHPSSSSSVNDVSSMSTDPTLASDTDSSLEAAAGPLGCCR
A digest of the protocol:
as §1

A further test has as its target AKT2 (Homo sapiens, UniProt P31751). In outline: as §1

Sequence of GRK2 (P25098 whole entry): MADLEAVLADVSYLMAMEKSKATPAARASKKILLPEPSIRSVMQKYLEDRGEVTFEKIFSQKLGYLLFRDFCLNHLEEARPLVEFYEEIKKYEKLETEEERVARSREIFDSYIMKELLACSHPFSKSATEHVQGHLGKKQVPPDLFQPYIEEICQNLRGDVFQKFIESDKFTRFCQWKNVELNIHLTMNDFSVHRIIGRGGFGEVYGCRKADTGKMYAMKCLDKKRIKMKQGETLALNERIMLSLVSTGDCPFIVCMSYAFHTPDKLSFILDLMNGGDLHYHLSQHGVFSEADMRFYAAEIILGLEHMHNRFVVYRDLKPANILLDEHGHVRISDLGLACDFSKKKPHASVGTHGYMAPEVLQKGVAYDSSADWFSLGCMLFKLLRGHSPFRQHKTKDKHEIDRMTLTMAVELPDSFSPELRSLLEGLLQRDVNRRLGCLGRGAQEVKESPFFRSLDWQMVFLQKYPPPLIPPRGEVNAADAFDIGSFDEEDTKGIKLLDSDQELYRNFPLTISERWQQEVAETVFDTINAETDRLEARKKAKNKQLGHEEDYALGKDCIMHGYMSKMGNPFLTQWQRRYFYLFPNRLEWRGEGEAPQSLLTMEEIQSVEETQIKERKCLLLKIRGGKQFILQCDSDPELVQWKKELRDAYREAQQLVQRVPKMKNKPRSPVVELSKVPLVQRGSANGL
Sequence of HIPK4 (Q8NE63 whole entry): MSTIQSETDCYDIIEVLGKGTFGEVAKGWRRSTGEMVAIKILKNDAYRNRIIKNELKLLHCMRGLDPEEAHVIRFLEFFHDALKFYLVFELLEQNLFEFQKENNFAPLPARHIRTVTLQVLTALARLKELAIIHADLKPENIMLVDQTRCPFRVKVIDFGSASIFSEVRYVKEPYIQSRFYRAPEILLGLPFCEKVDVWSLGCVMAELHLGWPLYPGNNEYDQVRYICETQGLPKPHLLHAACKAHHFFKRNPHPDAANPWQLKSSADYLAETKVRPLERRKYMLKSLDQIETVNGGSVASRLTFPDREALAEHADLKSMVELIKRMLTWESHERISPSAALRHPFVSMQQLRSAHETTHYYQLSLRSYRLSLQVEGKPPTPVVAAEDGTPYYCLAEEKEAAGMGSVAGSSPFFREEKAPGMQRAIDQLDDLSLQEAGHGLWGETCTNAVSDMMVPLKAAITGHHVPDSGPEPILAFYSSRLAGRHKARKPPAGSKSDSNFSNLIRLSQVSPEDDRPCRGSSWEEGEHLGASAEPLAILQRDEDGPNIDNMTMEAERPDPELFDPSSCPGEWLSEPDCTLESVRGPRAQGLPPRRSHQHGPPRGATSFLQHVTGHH
Sequence of CAMK2B (Q13554 whole entry): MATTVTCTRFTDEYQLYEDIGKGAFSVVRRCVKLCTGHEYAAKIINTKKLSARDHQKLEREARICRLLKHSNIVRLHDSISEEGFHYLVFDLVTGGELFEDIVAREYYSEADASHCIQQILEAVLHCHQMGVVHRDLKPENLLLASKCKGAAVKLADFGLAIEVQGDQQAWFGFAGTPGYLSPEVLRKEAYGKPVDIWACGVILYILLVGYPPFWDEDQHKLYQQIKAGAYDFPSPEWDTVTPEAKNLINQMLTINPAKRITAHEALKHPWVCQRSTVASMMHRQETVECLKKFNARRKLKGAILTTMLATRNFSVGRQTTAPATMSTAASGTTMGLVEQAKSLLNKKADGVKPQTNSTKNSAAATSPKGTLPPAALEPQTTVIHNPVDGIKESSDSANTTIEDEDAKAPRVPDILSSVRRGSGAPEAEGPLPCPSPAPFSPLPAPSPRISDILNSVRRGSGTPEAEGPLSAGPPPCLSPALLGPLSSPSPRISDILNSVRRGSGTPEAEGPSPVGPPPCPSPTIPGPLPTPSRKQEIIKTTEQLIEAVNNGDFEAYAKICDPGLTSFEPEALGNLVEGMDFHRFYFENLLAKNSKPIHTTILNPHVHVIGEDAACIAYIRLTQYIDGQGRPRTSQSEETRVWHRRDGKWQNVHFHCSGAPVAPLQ
Sequence of PAK1 (Q13153 whole entry): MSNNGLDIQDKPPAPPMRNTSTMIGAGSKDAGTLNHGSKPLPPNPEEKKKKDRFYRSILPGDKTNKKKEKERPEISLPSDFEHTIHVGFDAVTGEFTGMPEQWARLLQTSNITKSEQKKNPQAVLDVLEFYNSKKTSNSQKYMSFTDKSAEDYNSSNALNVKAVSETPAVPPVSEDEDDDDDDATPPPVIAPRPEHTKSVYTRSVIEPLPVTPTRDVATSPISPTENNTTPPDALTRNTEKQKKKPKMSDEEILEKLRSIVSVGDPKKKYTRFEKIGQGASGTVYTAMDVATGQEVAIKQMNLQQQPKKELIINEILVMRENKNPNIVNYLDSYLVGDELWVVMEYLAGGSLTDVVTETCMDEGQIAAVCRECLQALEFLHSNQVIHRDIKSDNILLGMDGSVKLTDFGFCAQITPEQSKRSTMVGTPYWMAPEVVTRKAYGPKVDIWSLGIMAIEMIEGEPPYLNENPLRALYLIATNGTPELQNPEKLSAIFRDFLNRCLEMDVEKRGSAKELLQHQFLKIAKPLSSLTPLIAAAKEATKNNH

For `C=C(C)[C@H]1CC=C(C)C(=O)C1` [S-carvone], the remaining binding at 100 µM on PAK1 was found to be 66%; at CAMK2B, 86%; on MAP4K3 it was 90%; at CDK4 it was 71%; on GRK2, 58%; on HIPK4, 66%. For the same compound, the remaining binding at 100 µM at SIK2 amounted to 76%; on DYRK1A, 91%; at ASK2, 100%; on p38-alpha, 100%; in [1], 85%; at PIK3CA(C420R), 96%. In addition, the remaining binding at 100 µM was found to be 73% at YSK1; 73% at CDK4-cyclinD1; 71% at NEK10; 94% at CAMK2D; 85% at MARK1; 69% on PDGFRB. The remaining binding at 100 µM at DRAK1 worked out at 100%; on HIPK1 it was 61%; on JNK1 it was 80%; at AKT2 it was 86%.
